Source: US20080108573A1, “Compositions And Methods For Treatment Of Cardiovascular Disease” (priority 2004, published 2008)
“Also recorded” adds a separate entry of the source.

Tests used:
[1] = tested on: WKY rat fed a high salt diet; WKY rat fed a high salt diet and given L-NAME; assay: Effect of VIP infusion on fibrosis in animal models of fibrosis (Example 3); format: in vivo; details: VIP 5 pmol/kg/min, 4 weeks via Alzet minipump; WKY high salt diet and high salt diet plus L-NAME (FIGS. 2 and 3)
Method: Three animal models of myocardial fibrosis were used (animals obtained from Australian Animal Resources, Perth, Western Australia, Australia) • i) WKY rat fed a high salt diet • ii) WKY rat fed a high salt diet and given L-NAME (ω-monomethyl-nitro-L-arginine, Sigma Chemical Co.) 10 mg/kg/day in the drinking water • iii) WKY rats with diabetes induced by streptozotocin injection 60 mg/kg
In each model the rats were randomised to VIP (H-[…]NH2, obtained from Auspep, Australia) or vehicle control (Haemaccel, Aventis) infusion for 4 weeks via Alzet minipump (n=6-8 each experimental group). The dose of VIP was 5 pmol/kg/min.
In models i) and ii) 14 week old WKY rats were commenced on high salt diet or high salt diet plus L-NAME. […] Myocardial VIP and myocardial fibrosis were quantitated. […]
Myocardial VIP concentrations and myocardial fibrosis were quantitiated.
(§1) VIP was measured by radioimmunoassay in known manner (see Davis R. E., Shelley S., Macdonald G. J. & Duggan K. A. (1992) The effects of a high sodium diet on the metabolism and secretion of vasoactive intestinal peptide in the rabbit. J. Physiol. 451:17-23. Duggan K. A., Ye V. Z. C., Jones D. M. Davis R. E. & Macdonald G. J. (1995) Effects of Endopeptidase 24.11 blockade on plasma and tissue concentrations of vasoactive intestinal peptide Clin. Sci. 89:267-271). […]

[2] = tested on: isolated trabeculae of human hearts; details: human hearts of previously healthy individuals; cited from earlier work
[3] = tested on: WKY rats on low, intermediate, high salt diet or high salt diet plus L-NAME; assay: Acute VIP infusion: uptake of VIP by the myocardium (Examples 1 and 2); format: in vivo; details: VIP 10 pmol/kg/min for one hour, rat models with increasing degree of fibrosis
Method: In preliminary studies a series of acute infusion experiments have been conducted in animal models.
Fourteen week old WKY rats were randomised to low salt diet (0.008%), intermediate salt diet (2.2%), high salt diet (4.4%) or high salt diet plus L-NAME (10 mg/kg/day) in the drinking water for 4 weeks (n=16 rats per group). On the day of the experiment the rats were anaesthetised and venous and arterial cannulae inserted. After a one hour rest equilibration period the rats were randomised to vehicle control (Haemaccell, Aventis) or VIP (10 pmol/kg/min) infusion for one hour at an infusion rate of 0.017 ml/min. The hearts were then harvested, myocardial VIP concentrations were measured and myocardial fibrosis quantitated.
The difference between the mean myocardial VIP concentrations after VIP or control infusion is a measure of VIP uptake by the heart.
as §1

isolated rat heart = isolated rat heart perfused with VIP, ischaemia then reperfusion; cited from earlier work
[4] = tested on: SHR and WKY rats on low/high salt diet, L-NAME plus high salt diet, or streptozotocin induced diabetes; assay: Preliminary four-week VIP infusion in rat models of myocardial fibrosis (Example 1); format: in vivo; details: VIP 7.2 nmol/kg/day via Alzet mini pump, four weeks, vs vehicle
From the text: Further preliminary experiments have been conducted on a number of animal models, which encompass a range of fibrous tissue replacement, varying from mild to moderate to severe. The experiments on the animal models encompassed a variety of aetiologies (alone and in combination) and a range of levels of induced fibrosis. For these experiments two types of rats were used, spontaneously hypertensive rats (SHR) and normotensive control Wistar-Kyoto rats (WKY). The WKY rats were given: 1) low salt diet, 2) high salt diet, or 3) L-NAME (ω-monomethyl-nitro-L-arginine; 10 mg/kg/day) plus high salt diet. The SHR rats were given low or high salt diets. The effect of VIP infusion in diabetic heart disease was also studied in the WKY rate with streptozotocin induced diabetes.
In each treatment group, rats were randomised to VIP or vehicle infusion (n=24 in each group) for four weeks. VIP was administered via Alzet mini pump at a rate of 7.2 nmol/kg/day.
After four weeks, the rats were anaesthetised and the hearts were harvested. Myocardial VIP concentrations and myocardial fibrosis were quantitated.

[5] = tested on: WKY rats on high salt diet or high salt diet plus L-NAME; assay: Myocardial VIP content after four week VIP infusion (Example 4); format: in vivo, rat; details: four week intravenous infusion of VIP vs vehicle; WKY high salt diet, or high salt diet and L-NAME (FIGS. 7A and 7B)
Method: FIG. 7: A—Myocardial VIP concentrations in WKY rats on a high salt diet after a four week intravenous infusion of VIP or vehicle control. B—Myocardial VIP concentrations in WKY rats on a high salt diet and L-NAME (10 mg/kg) in the drinking water after a four week intravenous infusion of VIP or vehicle control.
(§2) VIP was measured by radioimmunoassay in known manner (see Davis R. E., Shelley S., Macdonald G. J. & Duggan K. A. (1992) The effects of a high sodium diet on the metabolism and secretion of vasoactive intestinal peptide in the rabbit. J. Physiol. 451:17-23. Duggan K. A., Ye V. Z. C., Jones D. M. Davis R. E. & Macdonald G. J. (1995) Effects of Endopeptidase 24.11 blockade on plasma and tissue concentrations of vasoactive intestinal peptide Clin. Sci. 89:267-271). The degree of myocardial fibrosis was quantitated by two methods in known manner (refer Ye V Z C, Hodge G, Yong J L C & Duggan K A (2002) Early myocardial fibrosis is associated with depletion of vasoactive intestinal peptide in the heart Exp. Physiol 87:539-546 Ye V Z C, Hodge G, Yong J L C & Duggan K A (2003) Myocardial VIP and myocardial fibrosis induced by nitric oxide synthase inhibition in the rat Acta Physiol. Scand. 179:353-360. Ye V Z C, Hodge G, Yong J L C & Duggan K A (2004) Vasopeptidase inhibition reverses myocardial VIP depletion and decreases myocardial fibrosis in salt sensitive hypertension Europ. […]

[6] = tested on: WKY rats on high salt diet, high salt diet plus L-NAME, or with streptozotocin induced diabetes; assay: Regression of existing myocardial fibrosis after VIP infusion (Example 4); format: in vivo, rat; details: VIP 5 pmol/kg/min, 4 weeks, three models: high salt, streptozotocin diabetes (FIGS. 4 to 6)
Method: as §2, with “Europ. J. Pharmacol. 485:235-242).” for “Europ.”

In the case of `CC[C@H](C)[C@H](NC(=O)[C@H](CO)NC(=O)[C@H](CC(N)=O)NC(=O)[C@H](CC(C)C)NC(=O)[C@H](Cc1ccc(O)cc1)NC(=O)[C@H](CCCCN)NC(=O)[C@H](CCCCN)NC(=O)[C@@H](NC(=O)[C@H](C)NC(=O)[C@H](CCSC)NC(=O)[C@H](CCC(N)=O)NC(=O)[C@H](CCCCN)NC(=O)[C@H](CCCNC(=N)N)NC(=O)[C@H](CC(C)C)NC(=O)[C@H](CCCNC(=N)N)NC(=O)[C@@H](NC(=O)[C@H](Cc1ccc(O)cc1)NC(=O)[C@H](CC(N)=O)NC(=O)[C@H](CC(=O)O)NC(=O)[C@@H](NC(=O)[C@H](Cc1ccccc1)NC(=O)[C@@H](NC(=O)[C@H](C)NC(=O)[C@H](CC(=O)O)NC(=O)[C@H](CO)NC(=O)[C@@H](N)Cc1c[nH]cn1)C(C)C)[C@@H](C)O)[C@@H](C)O)C(C)C)C(=O)N[C@@H](CC(C)C)C(=O)N[C@@H](CC(N)=O)C(N)=O` [VIP], the “myocardial fibrosis index, treated rats compared to the control groups” value [1] is given as “significantly lower”, the “ionotropic effect in atria and ventricles” value [2] is given as “direct positive ionotropic effect” and the “uptake of VIP by the heart from the plasma (difference between mean myocardial VIP concentrations after VIP or control infusion)” value [3] is given as “As fibrosis worsens the amount of VIP taken up by the heart increases; also recorded: more avid with increasing degrees of fibrosis; also recorded: the higher the level of fibrosis, the greater the uptake of VIP by the heart; also recorded: found to increase as the degree of fibrosis increased”. The “myocardial function (left ventricular functions, coronary flow, tissue injury)” value (isolated rat heart) was “significant improvement of myocardial function”, the “myocardial fibrosis index, treated rats compared to the control groups” value [4] was “significantly lower” and the “myocardial content of VIP / uptake of exogenous VIP” value [5] was “clear association between the degree of fibrosis and uptake of exogenous VIP”. The “regression of existing myocardial fibrosis” value [6] was “regression of myocardial fibrosis in the three models”.
